Source: publication PMC6412891, “Synthesis and Biological Evaluation of Novel Thiazolyl-Coumarin Derivatives as Potent Histone Deacetylase Inhibitors with Antifibrotic Activity” (Molecules, 2019)

What was measured:
[1] = tested on: procollagen type I expression in CFs; assay: Procollagen type I expression levels in cardiac fibroblasts, western blot; format: cell-based, rat; settings: for procollagen type I expression levels: 5 μM for 48 h, absence of TGF-β1, vs. control; for procollagen type I expression levels induced by TGF-β1: derivatives 5 μM (TSA 0.1 μM) for 48 h in presence of TGF-β1
Protocol: In CFs collagen type I secretion is a hallmark of cardiac fibrosis development, which is regulated by HDACs. […] For this purpose, a fixed concentration of 5a, 6a, 7a and 8a derivatives in presence/absence of TGF-β1 were studied, and procollagen type I expression levels were measured by using the western blot technique. TSA was used as control and also for comparative purposes. In Figure 5 (A and B), in the upper panel representative photographs of procollagen type I expression level and GAPDH (used as charge control) are shown, whereas in the lower panel the graphic analyses are observed.
For the analysis of the protein expression of histone H4–acetylated (ac–H4) and total H4 histone, a number of 1 × 10^6 of CFs seeded in 60 mm plates was used, which were incubated with the inhibitory compounds at a concentration of 10 μM, in the absence/presence of TGF–β1(5ng/mL) for 4 h. Subsequently, total histones were extracted by the technique of saline precipitation (high salt extraction). Briefly, CFs were scraped from the plates with 1 mL of cold PBS transferring their contents to Eppendorf tubes to be centrifuged for 60 s at 1500 rpm at 4 °C and re–suspended in 400 μL of cold buffer A (10 mM 4-(2-hydroxyethyl)-1-piperazineethanesulfonic acid-KOH (HEPES-KOH) adjusted to pH 7.9, 1.5 mM MgCl2, 10 mM KCl, 0.5 mM dithiothreitol and 0.2 mM phenylmethylsulfonyl fluoride (PMSF). The suspension is left on ice for 10 min and then placed in the vortex for 10 s. The samples were centrifuged for 60 s, subsequently discarding the supernatant fraction. The obtained pellet was re-suspended in 60 μL of cold C buffer (20 mM HEPES-KOH adjusted to pH 7.9, 25% glycerol, 420 mM NaCl, 1.5 mM MgCl2, 0.2 mM EDTA, dithiothreitol 0.5 mM and 0.2 mM PMSF) and placed on ice for 20 min for saline precipitation. Cell debris is removed by centrifugation for 120 s at 1500 rpm at 4 °C and the supernatant fraction, which contains the DNA binding proteins, is stored at minus 20 °C. For the analysis of α–SMA and procollagen type I expression levels, 3×10^5 CFs seeded in 35 mm plates were used, which were incubated together with inhibitor compounds at a 5 μM, in the absence/presence of TGF–β1 (5 ng/mL) for 48 h. To obtain the total proteins, the CFs were washed three times with cold PBS, then scraped and lysed with 50 μL of radio inmuno-precipitation assay (RIPA) lysis buffer (10 mM Tris–HCl pH 7.2, 5 mM EDTA, 150 mM NaCl, Triton X–100 1%, sodium dodecyl sulfate (SDS) 0.1%, deoxycholate 1%, leupeptin 2 μg/mL, aprotinin 10mM, PMSF 1mM and Na3VO4 100μM). The solution was centrifuged for 15 min at 10,000 rpm and at 4 °C. The supernatant fraction containing the total proteins was stored at minus 20 °C. The concentration of proteins obtained was determined by spectrophotometry at 570 nm, using the Bradford method (Bio-Rad, Hercules, CA, USA).
CFs proteins (25 μg), were subjected to 10% sodium dodecyl sulfate-polyacrylamide gel electrophoresis and finally transferred onto a nitrocellulose membrane (Millipore, Billerica, MA, USA). The membrane was washed twice with tris–buffered saline solution containing 0.1% Tween 20 (TBST). After being blocked with TBST containing 5% nonfat milk for 40 min, the membrane was incubated with primary antibodies in TBST/1% nonfat milk at 4 °C overnight. The membrane was washed three times with TBST for a total of 15 min and then incubated with primary antibodies (ac–H4, H4 total, α-SMA, procollagen type I and GAPDH). Then the membrane was incubated with goat anti–rabbit or anti-mouse IgG antibodies conjugated with horseradish (diluted 1:1000) for 1 h at room temperature. Signals were developed with ECL reagents and exposure to photographic film.
Figure 5 CTz non–substituted inhibit procollagen type I expression levels in cardiac fibroblasts. […] (B) CFs were exposed to 5a, 6a, 7a and 8a at 5 μM for 48 h in presence of TGF–β1. Procollagen type I expression levels were measured by western blot. GAPDH was used as control load.

HDAC6 human recombinant = molecular target: T1, HDAC6 human recombinant (Homo sapiens, UniProt Q9UBN7); assay: HDAC6 inhibitory activity, fluorometric kit; format: biochemical; settings: Class II
T1 construct: purchased Enzo Life Science BML-AK516
T1 sequence (Q9UBN7 1-1215): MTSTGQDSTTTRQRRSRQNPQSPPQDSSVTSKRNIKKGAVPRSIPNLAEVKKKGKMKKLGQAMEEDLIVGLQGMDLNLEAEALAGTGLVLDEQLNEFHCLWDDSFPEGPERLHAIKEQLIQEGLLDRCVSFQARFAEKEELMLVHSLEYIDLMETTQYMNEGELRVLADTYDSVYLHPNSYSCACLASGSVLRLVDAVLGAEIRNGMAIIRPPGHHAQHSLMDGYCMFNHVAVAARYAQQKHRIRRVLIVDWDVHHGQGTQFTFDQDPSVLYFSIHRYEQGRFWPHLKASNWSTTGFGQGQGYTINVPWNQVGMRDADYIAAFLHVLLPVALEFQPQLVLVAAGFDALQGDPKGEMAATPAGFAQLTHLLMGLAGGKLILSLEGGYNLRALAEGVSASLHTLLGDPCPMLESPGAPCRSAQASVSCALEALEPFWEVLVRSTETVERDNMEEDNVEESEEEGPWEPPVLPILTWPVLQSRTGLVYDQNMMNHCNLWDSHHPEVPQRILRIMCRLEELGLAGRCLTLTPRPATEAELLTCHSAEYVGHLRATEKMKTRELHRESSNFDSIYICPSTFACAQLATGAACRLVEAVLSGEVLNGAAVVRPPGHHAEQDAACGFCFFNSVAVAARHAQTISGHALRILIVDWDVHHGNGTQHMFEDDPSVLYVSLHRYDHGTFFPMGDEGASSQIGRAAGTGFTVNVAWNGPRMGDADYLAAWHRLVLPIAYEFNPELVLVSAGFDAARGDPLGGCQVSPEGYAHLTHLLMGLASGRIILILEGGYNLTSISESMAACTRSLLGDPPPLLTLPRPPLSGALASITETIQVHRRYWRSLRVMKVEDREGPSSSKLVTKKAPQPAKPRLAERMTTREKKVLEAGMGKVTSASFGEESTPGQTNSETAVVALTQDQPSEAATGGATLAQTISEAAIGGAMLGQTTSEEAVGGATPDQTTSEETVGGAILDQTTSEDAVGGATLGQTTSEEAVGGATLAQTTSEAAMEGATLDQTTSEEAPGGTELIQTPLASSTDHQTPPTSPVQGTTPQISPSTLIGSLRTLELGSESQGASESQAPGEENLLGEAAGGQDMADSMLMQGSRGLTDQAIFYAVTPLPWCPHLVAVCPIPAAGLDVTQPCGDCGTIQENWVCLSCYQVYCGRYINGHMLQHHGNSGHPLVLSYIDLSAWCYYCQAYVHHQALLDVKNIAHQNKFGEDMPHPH

## O=C(Nc1nc(-c2cc3ccccc3oc2=O)cs1)c1ccc(O)c(O)c1 [Compound 6a]
[1]
  procollagen type I expression levels: decreased in a statistically significant manner
  procollagen type I expression levels induced by TGF-β1: decreased, close to control levels
HDAC6 human recombinant
  IC50: 276 ± 20.9 nM

## O=C(O)CCCCC(=O)Nc1nc(-c2cc3ccccc3oc2=O)cs1 [Compound 7a]
[1]
  procollagen type I expression levels: had no effect
HDAC6 human recombinant
  IC50: 5590 ± 184 nM

## O=C(CCCCC1CCSS1)Nc1nc(-c2cc3ccccc3oc2=O)cs1 (centres unmarked) [Compound 5a, 5-[1,2]-Dithiolan-3-yl-N-[4-(2-oxo-2H-chromen-3-yl)-thiazol-2-yl]-pentanamide]
[1]
  procollagen type I expression levels: decreased in a statistically significant manner
  procollagen type I expression levels induced by TGF-β1: decreased, close to control levels
HDAC6 human recombinant
  IC50: 153 ± 5.3 nM

## O=C(CCCCC(=O)Nc1nc(-c2cc3ccccc3oc2=O)cs1)NO [Compound 8a, 5-[4-(2-Oxo-2H-chromen-3-yl)-thiazol-2-yl-carbamoyl]-N-hydroxypentanamide]
[1]
  procollagen type I expression levels: decreased in a statistically significant manner
  procollagen type I expression levels induced by TGF-β1: decreased, close to control levels
HDAC6 human recombinant
  IC50: 98.3 ± 3.5 nM
